According to patent US7410974B2, “Halogenated Quinazolinyl nitrofurans as antibacterial agents” (Ulysses Pharmaceutical Products, Inc., priority 2003, dated 2008):
In brackets after ≈: the same amount, converted by molar mass.

Assays:
E. coli ATCC 25922 [1] = test: Time-kill curves; format: cell-based, Escherichia coli
Description: (§1) Time-kill curves. The bactericidal action of compounds was also evaluated over time (time-kill curve experiments). A bacterial inoculum of 1×10^5-1×10^7 Colony Forming Units (CFU)/ml was prepared. The inocula were verified and precisely determined by applying 10-μl drops of 10-fold dilutions onto Triptic Soy Agar plates. The CFU were counted after an incubation of 24 h at 35° C. Any experiment showing an inoculum that was more or less than the desired range of CFU/ml was rejected. Time-kill curve experiments were performed in 30 ml of MHB placed in 50-ml shaking flasks over a period of 24 hours. Test compounds and control antibiotics were added at time 0 hour and, at each time point, a sample was removed from flasks and the CFU determined by plate counts as described above. CFU from compound-treated cultures were compared to CFU collected from the control flask without antibiotic. Test compounds and control antibiotics were assayed at the MIC or a multiple of the MIC as determined by a broth microdilution technique as described above.

E. faecium ATCC 35667 = test: Minimal Bactericidal Concentration (MBC); format: cell-based; conditions: Enterococcus faecium, ATCC35667, 99.9% killing
Method in brief: (§2)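 Bactericidal endpoint follows the MIC read: aliquots of every well without visible growth, no fewer than five, go onto TSA. Incubation lasts exactly 24 h at 35° C. Surviving colonies are then counted.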

S. aureus MRSA COL [2] = test: Minimal Bactericidal Concentration (MBC); format: cell-based; conditions: Staphylococcus aureus, 99.9% killing
Method in brief: as §2

H. influenzae ATCC 49766 [3] = test: Minimal Bactericidal Concentration (MBC); format: cell-based; conditions: Haemophilus influenzae, ATCC49766, 99.9% killing
Method in brief: as §2

[4] = tested on: S. epidermidis ATCC 12228; test: Minimal Bactericidal Concentration (MBC); format: cell-based; conditions: Staphylococcus epidermidis, ATCC12228, 99.9% killing
Method in brief: as §2

H. influenzae ATCC 49247 [5] = test: Minimal Bactericidal Concentration (MBC); format: cell-based; conditions: Haemophilus influenzae, ATCC49247, 99.9% killing
Method in brief: as §2

S. aureus ATCC 29213 [6] = test: Minimal Bactericidal Concentration (MBC); format: cell-based; conditions: Staphylococcus aureus, ATCC29213, 99.9% killing
Method in brief: as §2

[7] = tested on: S. saprophyticus ATCC 15305; test: Minimal Bactericidal Concentration (MBC); format: cell-based; conditions: Staphylococcus saprophyticus, ATCC15305; S. saprophyticus ATCC 15305; 99.9% killing; read-out: MBC
Method in brief: as §2

E. faecalis ATCC 29212 = test: Minimal Bactericidal Concentration (MBC); format: cell-based; conditions: Enterococcus faecalis, ATCC29212, 99.9% killing
Method in brief: as §2

E. coli ATCC 25922 [8] = test: Minimal Bactericidal Concentration (MBC); format: cell-based; conditions: Escherichia coli, ATCC25922, 99.9% killing
Method in brief: as §2

S. aureus MRSA COL [9] = test: Time-kill curves; format: cell-based, Staphylococcus aureus; conditions: data not shown
Description: as §1

S. aureus ATCC 29213 [10] = test: Time-kill curves; format: cell-based, Staphylococcus aureus; conditions: at their respective MIC or a multiple of the MIC
Description: as §1

E. faecium VanA = test: MIC broth microdilution, antibiotic resistant strain panel; format: cell-based; conditions: Enterococcus faecium; multi-resistant E. faecium VanA; read-out: MIC
Method in brief: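 MHBCA, 10^5-10^6 CFU/ml, 2-fold serial dilutions, 24 h at 35° C. Growth read at 650 nm and visually. MIC = lowest concentration with no visible growth.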

[11] = tested on: B. cereus, B. subtilis and B. atrophaeus; test: MIC broth microdilution, Bacillus species; format: cell-based; conditions: three Bacillus species (B. cereus, B. subtilis and B. atrophaeus); data not shown
Description: Minimal Inhibitory Concentration (MIC) Determination. Bacteria (primary strain panel, TABLE 1). Susceptibility tests were performed following the recommendations from the National Committee for Clinical Standards (NCCLS). The MICs were determined by a broth microdilution technique using a final volume of 100 μl of cation-adjusted Mueller Hinton Broth (MHBCA) and a bacterial inoculum of 10^5-10^6 Colony Forming Units (CFU)/ml. The inocula were verified and precisely determined by applying 10-μl drops of 10-fold dilutions onto Triptic Soy Agar plates. The CFU were counted after an incubation of 24 h at 35° C. Any experiment showing an inoculum that was more or less than 10^5-10^6 CFU/ml was rejected. Control antibiotics and test compounds were prepared at a concentration equivalent to 2-fold the highest desired final concentration. Compounds were then diluted directly in the 96-well microtiter plates by serial 2-fold dilutions using a multichannel pipette. Microtiter plates were incubated during 24 h at 35° C. and growth was recorded by using a microtiterplate reader at 650 nm as well as by visual observation. The MIC was defined as the lowest concentration of compound yielding no visible growth. […] Fastidious bacteria. The medium used for Listeria monocytogenes, Neisseria meningitidis, and Campylobacter jejuni was MHBCA containing 2% laked horse blood. […]

[12] = tested on: L. monocytogenes ATCC 13932; test: MIC broth microdilution (NCCLS), fastidious bacteria; format: cell-based; conditions: Listeria monocytogenes, ATCC13932, MHBCA with 2% laked horse blood, 5% CO2
Method in brief: (§3)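 NCCLS broth microdilution; inoculum 10^5-10^6 CFU/ml; 2-fold serial dilutions; 35° C, 24 h; A650 plus visual read. Media: MHBCA (S. saprophyticus, E. faecium), MHBCA + 2% laked horse blood (Listeria), HTM (Haemophilus), the last two under 5% CO2.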

H. influenzae ATCC 49766 [13] = test: as above; format: cell-based; conditions: Haemophilus influenzae, ATCC49766, HTM, 5% CO2
Method in brief: as §3

C. jejuni ATCC 33291 = test: as above; format: cell-based; conditions: Campylobacter jejuni, ATCC33291; C. jejuni ATCC 33291; MHBCA with 2% laked horse blood, 5% CO2; read-out: MIC
Method in brief: as §3

H. influenzae ATCC 49247 [14] = test: as above; format: cell-based; conditions: Haemophilus influenzae, ATCC49247, HTM, 5% CO2
Method in brief: as §3

O=[N+]([O-])c1ccc(C=Cc2nc(Nc3ccc(O)cc3)c3cc(F)ccc3n2)o1 [Compound V, 6-fluoro-2-[2-(5-nitro-2-furyl)vinyl]-4-(p-hydroxyanilino)-quinazoline]
time to strongly bactericidal action (time-kill) (E. coli ATCC 25922 [1]; E. coli ATCC 25922, at the MIC or a multiple of the MIC, FIG. 2): ≤ 2 h | bactericidal action compared with ciprofloxacin (time-kill) (E. coli ATCC 25922 [1]; E. coli, at their respective MIC or a multiple of the MIC): superior to ciprofloxacin | MBC (E. faecium ATCC 35667): 0.25 µg/mL (≈ 0.637 µM) | MBC (S. aureus MRSA COL [2]): 0.06 µg/mL (≈ 0.153 µM) | MBC (H. influenzae ATCC 49766 [3]): 0.06 µg/mL (≈ 0.153 µM) | MBC [4]: 0.03 µg/mL (≈ 0.0765 µM) | MBC (H. influenzae ATCC 49247 [5]): 0.06 µg/mL (≈ 0.153 µM) | MBC (S. aureus ATCC 29213 [6]): 0.06 µg/mL (≈ 0.153 µM) | MBC [7]: 0.03 to 0.06 µg/mL (≈ 0.0765 to 0.153 µM) | MBC (E. faecalis ATCC 29212): 0.03 µg/mL (≈ 0.0765 µM) | MBC (E. coli ATCC 25922 [8]): 0.5 µg/mL (≈ 1.27 µM) | bactericidal action (time-kill) (S. aureus MRSA COL [9]): similarly bactericidal | bactericidal action compared with ciprofloxacin (time-kill) (S. aureus ATCC 29213 [10]): superior to ciprofloxacin | MIC (E. faecium VanA): 0.03 µg/mL (≈ 0.0765 µM) | MIC [11]: 0.03 to 0.125 µg/mL (≈ 0.0765 to 0.319 µM) | MIC [12]: 0.03 to 0.25 µg/mL (≈ 0.0765 to 0.637 µM) | MIC (H. influenzae ATCC 49766 [13]): 0.06 µg/mL (≈ 0.153 µM) | MIC (C. jejuni ATCC 33291): 0.016 µg/mL (≈ 0.0408 µM) | MIC (H. influenzae ATCC 49247 [14]): 0.03 µg/mL (≈ 0.0765 µM)
